This note sets out measurements from ChEMBL document CHEMBL1201862, “PubChem BioAssay data set” (2004).

Holding throughout (assay): growth of human tumour cells (NCI), 48 h
The test system of assay [1] is MDA-MB-231.
In assay [2] the test system is RXF 393.
In assay [3] the test system is SF-539.
For assay [4], the system named is K562.
The subject of assay [5] is KM12.
Assay [6] deals with PC-3.
The subject of assay [7] is SK-MEL-5.
The subject of assay [8] is HOP-92.
The test system of assay [9] is IGROV-1.
The subject of assay [10] is HCT-15.
In assay [11] the test system is UACC-257.
The test system of assay [12] is Hs-578T.
The test system of assay [13] is CAKI-1.
For assay [14], the system named is SF-295.
Assay [15] deals with HOP-62.
In assay [16] the test system is OVCAR-3.
The subject of assay [17] is SF-268.
Assay [18] relates to UACC-62.
Assay [19] concerns SNB-75.

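The compound was tested at five concentrations on cells cultured in 96-well plates, with a 48-hour exposure period. Abbreviation: GI50, concentration required for 50% inhibition of growth.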 Active and inactive are the calls of the source. Cut-off read from the data, not from the text of the source: active = GI50 up to about 1.1 µM and inactive = higher.

Turning to `NC(=O)[N+](=CC(=S)Nc1ccccc1Cl)C(N)=O`, the GI50 in assay [1], in assay [2], in [3], in [4], in [5] and in [6] was > 100 µM (inactive) throughout. For the same compound, the GI50 was > 100 µM (inactive) in assay [7]; > 100 µM (inactive) in assay [8]; > 100 µM (inactive) in assay [9]; more than 100 µM in assay [10]; > 100 µM (inactive) in assay [11]; > 100 µM (inactive) in assay [12]. Moreover, the GI50 in [13], in [14], in assay [15], in [16], in [17] and in assay [18] was > 100 µM (inactive) each time.
For `CCCCn1cnc2c(c(CC#N)nn2-c2ccccc2)c1=N`, the GI50 is 43.1 µM (inactive) in assay [1]; 70.1 µM (inactive) in assay [2]; 34 µM (inactive) in assay [4]; 43 µM (inactive) in assay [5]; 36.8 µM (inactive) in [6]; 20.9 µM (inactive) in assay [7]. Besides, the GI50 in [8] is 52.2 µM (inactive); in assay [9], 68.9 µM (inactive); in assay [10], 36.8 µM; in assay [11] it was 35.4 µM (inactive); in assay [12], 39.9 µM (inactive); in assay [13], > 100 µM (inactive). Moreover, the GI50 in assay [14] was 30.4 µM (inactive); in assay [19], 45.6 µM (inactive); in assay [15] it was > 100 µM (inactive); in [16], 63.7 µM (inactive); in assay [17], 71.1 µM (inactive); in assay [18], 20.2 µM (inactive).
For the compound `O=C(O)/C=N/NC(=S)NC1CCCCC1`, the GI50 in assay [1], in assay [3], in [4], in assay [5], in assay [6] and in [7] was > 100 µM (inactive) each time. The GI50 in assay [8] was > 100 µM (inactive); in [9] it was > 100 µM (inactive); in assay [10], more than 100 µM; in assay [11], > 100 µM (inactive); in [12] it was > 100 µM (inactive); in assay [13] it was > 100 µM (inactive). The GI50 in assay [14], in assay [19], in [15], in assay [16] and in assay [18] was > 100 µM (inactive) each time.
On to `S=C1NNC(=S)NN1`, for which the GI50 is > 1 µM (active) in [1]; > 1 µM (active) in [3]; 0.178 µM (active) in [4]; > 1 µM (active) in assay [5]; > 1 µM (active) in assay [6]; 0.887 µM (active) in assay [7]. Besides, the GI50 in assay [8] was > 1 µM (active); in [9], 0.436 µM (active); in [10], more than 1 µM; in assay [11], > 1 µM (active); in assay [12] it was 0.697 µM (active); in assay [13] it was 0.225 µM (active). The GI50 was 0.219 µM (active) in [14]; 0.292 µM (active) in assay [15]; > 1 µM (active) in assay [16]; 0.387 µM (active) in [17]; 0.296 µM (active) in assay [18].
On to `C[N+](C)(C)c1ncnc2c1ncn2C1CCCCO1` (centres undefined), for which the GI50 in assay [1], in assay [2], in assay [4], in assay [5], in assay [6] and in [7] was > 100 µM (inactive) each time. The GI50 in assay [8], in assay [9], in [11], in assay [12], in [13] and in assay [14] was > 100 µM (inactive) throughout. Also, the GI50 in assay [19], in assay [15], in assay [16], in assay [17] and in [18] was > 100 µM (inactive) throughout.
In the case of `Cc1cnc2c(c1)C(=O)N(c1ccc(Oc3ccccc3)cc1)S2(=O)=O`, the GI50 in assay [1], in assay [3], in [4], in [5], in [6] and in [7] was > 100 µM (inactive) in each case. The GI50 in [8] is > 100 µM (inactive); in assay [9], 57.8 µM (inactive); in [10], more than 100 µM; in [11] it was > 100 µM (inactive); in assay [12], > 100 µM (inactive); in [13], > 100 µM (inactive). Besides, the GI50 in assay [14], in assay [19], in [15], in assay [16], in assay [17] and in assay [18] was > 100 µM (inactive) each time.
Take `N#C/C(N)=C(C#N)/N=C/N`: the GI50 in assay [1], in assay [3], in [4], in assay [5], in assay [6] and in assay [7] was > 100 µM (inactive) in each case. Also, the GI50 in [8] was > 100 µM (inactive); in assay [9], > 100 µM (inactive); in [10], more than 100 µM; in assay [11], > 100 µM (inactive); in assay [12] it was > 100 µM (inactive); in [14], > 100 µM (inactive). Besides, the GI50 in assay [19], in [15], in assay [16], in assay [17] and in assay [18] was > 100 µM (inactive) in each case.
For the compound `COC1CC(OC2C(C)OC(OC3C(C)OC(OC4C(C)OC(O[C@H]5CC[C@@]6(C)C(=CC[C@]7(O)[C@@H]6C[C@@H](OC(=O)/C=C/c6ccccc6)[C@@]6(C)[C@]7(O)CC[C@@]6(O)C(C)=O)C5)CC4OC)CC3OC)CC2OC)OC(C)C1O` (some centres undefined), the GI50 is > 12.5 µM (inactive) in [1]; > 12.5 µM (inactive) in assay [3]; > 12.5 µM (inactive) in assay [4]; 10.1 µM (inactive) in [5]; > 12.5 µM (inactive) in [6]; 11.4 µM (inactive) in [7]. The GI50 in assay [8] was > 12.5 µM (inactive); in assay [9], > 12.5 µM (inactive); in assay [10] it was more than 12.5 µM; in assay [11] it was > 12.5 µM (inactive); in assay [12] it was > 12.5 µM (inactive); in assay [13], > 12.5 µM (inactive). Further, the GI50 was > 12.5 µM (inactive) in assay [14]; > 12.5 µM (inactive) in [19]; > 12.5 µM (inactive) in assay [15]; 11 µM (inactive) in [16]; > 12.5 µM (inactive) in assay [17]; > 12.5 µM (inactive) in assay [18].
As for `CCC/C(Cl)=N\OC(=O)Nc1ccc(F)cc1`, the GI50 in assay [1] is 17.9 µM (inactive); in [2] it was 18.4 µM (inactive); in assay [4], 1.89 µM (inactive); in assay [5], 20.6 µM (inactive); in assay [6] it was 17.3 µM (inactive); in assay [7] it was 13.3 µM (inactive). The GI50 in assay [8] was 4.43 µM (inactive); in assay [9] it was 17.3 µM (inactive); in assay [10], 5.82 µM; in [11], 16.7 µM (inactive); in [12], 41.5 µM (inactive); in [13], 1.91 µM (inactive). Moreover, the GI50 in [14] was > 100 µM (inactive); in [19], > 42.7 µM (inactive); in assay [15], 19.2 µM (inactive); in assay [16] it was 5.24 µM (inactive); in assay [17], 26.1 µM (inactive); in [18], 13.6 µM (inactive).
Turning to `COC(=O)/C=C/c1cc2c(cc1-c1c(C(=O)O)cc(OC)c(OC)c1OC)OCO2`, the GI50 in assay [1], in assay [3], in assay [4], in [5], in assay [6] and in assay [7] was > 10 µM (inactive) in each case. In addition, the GI50 in assay [8] is > 10 µM (inactive); in [9] it was > 10 µM (inactive); in assay [10] it was more than 10 µM; in assay [11], > 10 µM (inactive); in assay [12] it was > 10 µM (inactive); in [13], > 10 µM (inactive). For the same compound, the GI50 in [14], in assay [19], in assay [15], in [16], in [17] and in [18] was > 10 µM (inactive) in each case.
For the compound `COC(=O)C1OC(O[C@H]2CC[C@]3(C)[C@H]4CC=C5[C@@H]6CC(C)(C)CC[C@]6(C(=O)OC)[C@H](O)C[C@@]5(C)[C@]4(C)CC[C@H]3C2(C)C)C(O)C(O)C1O` (some centres undefined), the GI50 was 9.33 µM (inactive) in [1]; 5.22 µM (inactive) in assay [2]; 2.8 µM (inactive) in assay [4]; 1.67 µM (inactive) in assay [5]; 6.64 µM (inactive) in assay [6]; 13.4 µM (inactive) in [7]. In addition, the GI50 in assay [8] is 16.8 µM (inactive); in assay [9], 12.3 µM (inactive); in assay [10] it was 10.5 µM; in assay [11], 15.3 µM (inactive); in [12] it was 13.8 µM (inactive); in assay [13], 14.2 µM (inactive). Also, the GI50 in assay [14] is 10.4 µM (inactive); in [19], 14.8 µM (inactive); in assay [15], 17 µM (inactive); in assay [16], 10.4 µM (inactive); in [17], 13.2 µM (inactive); in assay [18] it was 12.5 µM (inactive).
